System: 786-0 complex spheroids with HUVEC/MSC, growth % test/control
Test: Anticancer human tumor 786-0 cell line growth inhibition [AhR];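 also: compound exposure lasted seven days before the read-out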
Conditions: for IC50: curve of first compound; for viability, T/C: stronger effect = lower value
How it was run: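 Complex tumor spheroids co-cultured with HUVEC and human MSC stroma; AhR antagonists tested in combination with standard-of-care and investigational agents. Top concentration at or near clinical Cmax (else 10 microM), half-log dilutions; growth expressed as percent test/control.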

[1] = second compound 0.1 µM, first compound 0.0316 µM
[2] = second compound 0.1 µM, first compound 0.1 µM
[3] = second compound 0.1 µM, first compound 0.316 µM
[4] = second compound 0.1 µM, first compound 1 µM
[5] = second compound 0.316 µM, first compound 0.0316 µM
[6] = second compound 0.316 µM, first compound 0.1 µM
[7] = second compound 0.316 µM, first compound 0.316 µM
[8] = second compound 0.316 µM, first compound 1 µM
[9] = second compound 1 µM, first compound 0.0316 µM
[10] = second compound 1 µM, first compound 0.1 µM
[11] = second compound 1 µM, first compound 0.316 µM
[12] = second compound 1 µM, first compound 1 µM
[13] = second compound 3.16 µM, first compound 0.0316 µM
[14] = second compound 3.16 µM, first compound 0.1 µM
[15] = second compound 3.16 µM, first compound 0.316 µM
[16] = second compound 3.16 µM, first compound 1 µM
[17] = second compound 10 µM, first compound 0.0316 µM
[18] = second compound 10 µM, first compound 0.1 µM
[19] = second compound 10 µM, first compound 0.316 µM
[20] = second compound 10 µM, first compound 1 µM

CC1COCCN1c1cc(-c2ccnn2C)c2ccnc(-c3ccn[nH]3)c2n1 (stereo not given) + Cc1cncc(-c2nc(NCCc3c[nH]c4ccccc34)c3ncn(C(C)C)c3n2)c1
IC50 (second compound 0.1 µM): 0.192 µM
IC50 (second compound 0.316 µM): 0.192 µM
IC50 (second compound 1 µM): 0.15 µM
IC50 (second compound 3.16 µM): 0.0498 µM
IC50 (second compound 10 µM): < 0.00316 µM
viability, T/C (second compound 0.1 µM, first compound 0.00316 µM): 106%
viability, T/C (second compound 0.1 µM, first compound 0.01 µM): 114%
viability, T/C [1]: 108%
viability, T/C [2]: 89.9%
viability, T/C [3]: 19.7%
viability, T/C [4]: 6.85%
viability, T/C (second compound 0.316 µM, first compound 0.00316 µM): 119%
viability, T/C (second compound 0.316 µM, first compound 0.01 µM): 118%
viability, T/C [5]: 116%
viability, T/C [6]: 88.4%
viability, T/C [7]: 20.5%
viability, T/C [8]: 7.37%
viability, T/C (second compound 1 µM, first compound 0.00316 µM): 106%
viability, T/C (second compound 1 µM, first compound 0.01 µM): 104%
viability, T/C [9]: 100%
viability, T/C [10]: 69%
viability, T/C [11]: 15%
viability, T/C [12]: 5.51%
viability, T/C (second compound 3.16 µM, first compound 0.00316 µM): 74.9%
viability, T/C (second compound 3.16 µM, first compound 0.01 µM): 74.9%
viability, T/C [13]: 65%
viability, T/C [14]: 26.9%
viability, T/C [15]: 4.19%
viability, T/C [16]: 2.86%
viability, T/C (second compound 10 µM, first compound 0.00316 µM): 8.14%
viability, T/C (second compound 10 µM, first compound 0.01 µM): 10.1%
viability, T/C [17]: 7.76%
viability, T/C [18]: 1.45%
viability, T/C [19]: 0.29%
viability, T/C [20]: 0.46%

CC1COCCN1c1cc(C2(S(C)(=N)=O)CC2)nc(-c2ccnc3[nH]ccc23)n1 (stereo not given) + Cc1cncc(-c2nc(NCCc3c[nH]c4ccccc34)c3ncn(C(C)C)c3n2)c1
IC50 (second compound 0.1 µM): 7.11 µM
IC50 (second compound 0.316 µM): 6.48 µM
IC50 (second compound 1 µM): 4.84 µM
IC50 (second compound 3.16 µM): 1.23 µM
IC50 (second compound 10 µM): < 0.0316 µM
viability, T/C [1]: 107%
viability, T/C [2]: 118%
viability, T/C [3]: 116%
viability, T/C [4]: 113%
viability, T/C (second compound 0.1 µM, first compound 3.16 µM): 97.7%
viability, T/C (second compound 0.1 µM, first compound 10 µM): 29.8%
viability, T/C [5]: 122%
viability, T/C [6]: 117%
viability, T/C [7]: 112%
viability, T/C [8]: 108%
viability, T/C (second compound 0.316 µM, first compound 3.16 µM): 91.9%
viability, T/C (second compound 0.316 µM, first compound 10 µM): 25.3%
viability, T/C [9]: 100%
viability, T/C [10]: 110%
viability, T/C [11]: 105%
viability, T/C [12]: 125%
viability, T/C (second compound 1 µM, first compound 3.16 µM): 67%
viability, T/C (second compound 1 µM, first compound 10 µM): 20.9%
viability, T/C [13]: 62.4%
viability, T/C [14]: 64.5%
viability, T/C [15]: 69%
viability, T/C [16]: 53.6%
viability, T/C (second compound 3.16 µM, first compound 3.16 µM): 26.9%
viability, T/C (second compound 3.16 µM, first compound 10 µM): 5.56%
viability, T/C [17]: 18.2%
viability, T/C [18]: 18.7%
viability, T/C [19]: 20.6%
viability, T/C [20]: 17.5%
viability, T/C (second compound 10 µM, first compound 3.16 µM): 3.02%
viability, T/C (second compound 10 µM, first compound 10 µM): 0.89%

Reference: PubChem BioAssay AID1919003 (Molecular Pharmacology Branch, DTP, NCI, 2023)
